Measurements taken from US11053204B2, “Pyrimidinyloxy benzene derivatives as herbicides” (FMC Corporation, priority 2015, dated 2021).

Key:
Assay type in all cases: in vivo
[1] = tested on: ragweed (common ragweed, Ambrosia elatior); test: Test A postemergence, visual injury rating; conditions: 0 is no effect, 100 is complete control
Text: (§1) Seeds of plant species selected from barnyardgrass (Echinochloa crus-galli), kochia (Kochia scoparia), ragweed (common ragweed, Ambrosia elatior), Italian ryegrass (Lolium multiflorum), large (Lg) crabgrass (Digitaria sanguinalis), giant foxtail (Setaria faberii), morningglory (Ipomoea spp.), pigweed (Amaranthus retroflexus), velvetleaf (Abutilon theophrasti), wheat (Triticum aestivum), and corn (Zea mays) were planted into a blend of loam soil and sand and treated preemergence with a directed soil spray using test chemicals formulated in a non-phytotoxic solvent mixture which included a surfactant.
(§2) At the same time, plants selected from these crop and weed species and also blackgrass (Alopecurus myosuroides), and galium (catchweed bedstraw, Galium aparine) were planted in pots containing the same blend of loam soil and sand and treated with postemergence applications of test chemicals formulated in the same manner. Plants ranged in height from 2 to 10 cm and were in the one- to two-leaf stage for the postemergence treatment. Treated plants and untreated controls were maintained in a greenhouse for approximately 10 days, after which time all treated plants were compared to untreated controls and visually evaluated for injury. Plant response ratings, summarized in Table A, are based on a 0 to 100 scale where 0 is no effect and 100 is complete control. A dash (-) response means no test result.

[2] = tested on: wheat (Triticum aestivum); test: Test A postemergence, visual injury rating; conditions: 0 is no effect, 100 is complete control
Text: as §1, §2

[3] = tested on: pigweed (Amaranthus retroflexus); test: Test A postemergence, visual injury rating; conditions: 0 is no effect, 100 is complete control
Text: as §1, §2

[4] = tested on: corn (Zea mays); test: Test A postemergence, visual injury rating; conditions: 0 is no effect, 100 is complete control
Text: as §1, §2

[5] = tested on: blackgrass (Alopecurus myosuroides); test: Test A postemergence, visual injury rating; conditions: 0 is no effect, 100 is complete control
Text: as §1, §2

[6] = tested on: giant foxtail (Setaria faberii); test: Test A postemergence, visual injury rating; conditions: 0 is no effect, 100 is complete control
Text: as §1, §2

[7] = tested on: barnyardgrass (Echinochloa crus-galli); test: Test A postemergence, visual injury rating; conditions: 0 is no effect, 100 is complete control
Text: as §1, §2

[8] = tested on: Italian ryegrass (Lolium multiflorum); test: Test A postemergence, visual injury rating; conditions: 0 is no effect, 100 is complete control
Text: as §1, §2

[9] = tested on: kochia (Kochia scoparia); test: Test A postemergence, visual injury rating; conditions: 0 is no effect, 100 is complete control
Text: as §1, §2

[10] = tested on: galium (catchweed bedstraw, Galium aparine); test: Test A postemergence, visual injury rating; conditions: 0 is no effect, 100 is complete control
Text: as §1, §2

[11] = tested on: ragweed (common ragweed, Ambrosia elatior); test: Test A preemergence, visual injury rating; conditions: 0 to 100 scale (0 no effect, 100 complete control)
Text: as §1, §2

[12] = tested on: pigweed (Amaranthus retroflexus); test: Test A preemergence, visual injury rating; conditions: 0 to 100 scale (0 no effect, 100 complete control)
Text: as §1, §2

[13] = tested on: giant foxtail (Setaria faberii); test: Test A preemergence, visual injury rating; conditions: 0 to 100 scale (0 no effect, 100 complete control)
Text: as §1, §2

[14] = tested on: barnyardgrass (Echinochloa crus-galli); test: Test A preemergence, visual injury rating; conditions: 0 to 100 scale (0 no effect, 100 complete control)
Text: as §1, §2

[15] = tested on: Italian ryegrass (Lolium multiflorum); test: Test A preemergence, visual injury rating; conditions: 0 to 100 scale (0 no effect, 100 complete control)
Text: as §1, §2

[16] = tested on: kochia (Kochia scoparia); test: Test A preemergence, visual injury rating; conditions: 0 to 100 scale (0 no effect, 100 complete control)
Text: as §1, §2

SMILES | Ragweed plant response rating (0 to 100 scale) ([1]; 500 g ai/ha) | Wheat plant response rating (0 to 100 scale) ([2]; 500 g ai/ha) | Pigweed plant response rating (0 to 100 scale) ([3]; 500 g ai/ha) | Corn plant response rating (0 to 100 scale) ([4]; 500 g ai/ha) | Blackgrass plant response rating (0 to 100 scale) ([5]; 500 g ai/ha) | Foxtail, Giant plant response rating (0 to 100 scale) ([6]; 500 g ai/ha) | Barnyardgrass plant response rating (0 to 100 scale) ([7]; 500 g ai/ha) | Ryegrass, Italian plant response rating (0 to 100 scale) ([8]; 500 g ai/ha) | Kochia plant response rating (0 to 100 scale) ([9]; 500 g ai/ha) | Galium plant response rating (0 to 100 scale) ([10]; 500 g ai/ha) | Ragweed plant response rating ([11]; 500 g ai/ha) | Pigweed plant response rating ([12]; 500 g ai/ha) | Foxtail, Giant plant response rating ([13]; 500 g ai/ha) | Barnyardgrass plant response rating ([14]; 500 g ai/ha) | Ryegrass, Italian plant response rating ([15]; 500 g ai/ha) | Kochia plant response rating ([16]; 500 g ai/ha) | Ragweed plant response rating (0 to 100 scale) ([1]; 125 g ai/ha) | Wheat plant response rating (0 to 100 scale) ([2]; 125 g ai/ha) | Pigweed plant response rating (0 to 100 scale) ([3]; 125 g ai/ha) | Corn plant response rating (0 to 100 scale) ([4]; 125 g ai/ha) | also measured
CC(C)(C)OC(=O)c1c(Br)cccc1Oc1ncc(Cl)cn1 [Compound 14] | 0 | 40 | 100 | 10 | 70 | 60 | 40 | 70 | 70 | 100 | 10 | 100 | 100 | 60 | 20 | 70 | – | – | – | – | –
O=C(OCCC(F)(F)F)c1ccccc1Oc1ncc(Cl)cn1 [Compound 17] | 0 | 0 | 40 | 20 | 0 | 0 | 0 | 0 | 0 | 0 | 0 | 10 | 0 | 0 | 0 | 0 | 0 | 0 | 20 | 0 | Blackgrass plant response rating (0 to 100 scale) ([5]; 125 g ai/ha): 0; Foxtail, Giant plant response rating (0 to 100 scale) ([6]; 125 g ai/ha): 0; Barnyardgrass plant response rating (0 to 100 scale) ([7]; 125 g ai/ha): 0; Ryegrass, Italian plant response rating (0 to 100 scale) ([8]; 125 g ai/ha): 0; Kochia plant response rating (0 to 100 scale) ([9]; 125 g ai/ha): 0; Galium plant response rating (0 to 100 scale) ([10]; 125 g ai/ha): 0; Ragweed plant response rating ([11]; 125 g ai/ha): 0; Pigweed plant response rating ([12]; 125 g ai/ha): 0; Foxtail, Giant plant response rating ([13]; 125 g ai/ha): 0; Barnyardgrass plant response rating ([14]; 125 g ai/ha): 0; Ryegrass, Italian plant response rating ([15]; 125 g ai/ha): 0; Kochia plant response rating ([16]; 125 g ai/ha): 0
N#Cc1cnc(Oc2cccc(Br)c2C(=O)OCC(F)(F)F)nc1 [Compound 31] | 0 | 0 | 0 | 0 | 0 | 0 | 0 | 0 | 0 | 0 | 0 | 0 | 0 | 0 | 0 | 0 | 0 | 0 | 0 | 0 | Blackgrass plant response rating (0 to 100 scale) ([5]; 125 g ai/ha): 0; Foxtail, Giant plant response rating (0 to 100 scale) ([6]; 125 g ai/ha): 0; Barnyardgrass plant response rating (0 to 100 scale) ([7]; 125 g ai/ha): 0; Ryegrass, Italian plant response rating (0 to 100 scale) ([8]; 125 g ai/ha): 0; Kochia plant response rating (0 to 100 scale) ([9]; 125 g ai/ha): 0; Galium plant response rating (0 to 100 scale) ([10]; 125 g ai/ha): 0; Ragweed plant response rating ([11]; 125 g ai/ha): 0; Pigweed plant response rating ([12]; 125 g ai/ha): 0; Foxtail, Giant plant response rating ([13]; 125 g ai/ha): 0; Barnyardgrass plant response rating ([14]; 125 g ai/ha): 0; Ryegrass, Italian plant response rating ([15]; 125 g ai/ha): 0; Kochia plant response rating ([16]; 125 g ai/ha): 0
N#Cc1cccc(Oc2ncc(Cl)cn2)c1C(=O)OCC(F)(F)F [Compound 32] | 0 | 0 | 30 | 0 | 0 | 0 | 0 | 0 | 0 | 0 | 0 | 30 | 0 | 0 | 0 | 0 | 0 | 0 | 20 | 0 | Blackgrass plant response rating (0 to 100 scale) ([5]; 125 g ai/ha): 0; Foxtail, Giant plant response rating (0 to 100 scale) ([6]; 125 g ai/ha): 0; Barnyardgrass plant response rating (0 to 100 scale) ([7]; 125 g ai/ha): 0; Ryegrass, Italian plant response rating (0 to 100 scale) ([8]; 125 g ai/ha): 0; Kochia plant response rating (0 to 100 scale) ([9]; 125 g ai/ha): 0; Galium plant response rating (0 to 100 scale) ([10]; 125 g ai/ha): 0; Ragweed plant response rating ([11]; 125 g ai/ha): 0; Pigweed plant response rating ([12]; 125 g ai/ha): 30; Foxtail, Giant plant response rating ([13]; 125 g ai/ha): 0; Barnyardgrass plant response rating ([14]; 125 g ai/ha): 0; Ryegrass, Italian plant response rating ([15]; 125 g ai/ha): 0; Kochia plant response rating ([16]; 125 g ai/ha): 0
O=C(OCC(F)(F)F)c1c(Br)cccc1Oc1ncc(Br)cn1 [Compound 34] | 0 | 0 | 100 | 30 | 70 | 80 | 20 | 0 | 90 | 100 | 0 | 100 | 100 | 90 | 0 | 40 | 0 | 0 | 100 | 30 | Blackgrass plant response rating (0 to 100 scale) ([5]; 125 g ai/ha): 10; Foxtail, Giant plant response rating (0 to 100 scale) ([6]; 125 g ai/ha): 20; Barnyardgrass plant response rating (0 to 100 scale) ([7]; 125 g ai/ha): 0; Ryegrass, Italian plant response rating (0 to 100 scale) ([8]; 125 g ai/ha): 0; Kochia plant response rating (0 to 100 scale) ([9]; 125 g ai/ha): 60; Galium plant response rating (0 to 100 scale) ([10]; 125 g ai/ha): 50; Ragweed plant response rating ([11]; 125 g ai/ha): 0; Pigweed plant response rating ([12]; 125 g ai/ha): 40; Foxtail, Giant plant response rating ([13]; 125 g ai/ha): 70; Barnyardgrass plant response rating ([14]; 125 g ai/ha): 0; Ryegrass, Italian plant response rating ([15]; 125 g ai/ha): 0; Kochia plant response rating ([16]; 125 g ai/ha): 20
N#CCOC(=O)c1c(C#N)cccc1Oc1ncc(Cl)cn1 [Compound 39] | 0 | 0 | 0 | 0 | 0 | 0 | 0 | 0 | 0 | 0 | 0 | 0 | 0 | 0 | 0 | 0 | 0 | 0 | 0 | 0 | Blackgrass plant response rating (0 to 100 scale) ([5]; 125 g ai/ha): 0; Foxtail, Giant plant response rating (0 to 100 scale) ([6]; 125 g ai/ha): 0; Barnyardgrass plant response rating (0 to 100 scale) ([7]; 125 g ai/ha): 0; Ryegrass, Italian plant response rating (0 to 100 scale) ([8]; 125 g ai/ha): 0; Kochia plant response rating (0 to 100 scale) ([9]; 125 g ai/ha): 0; Galium plant response rating (0 to 100 scale) ([10]; 125 g ai/ha): 0; Ragweed plant response rating ([11]; 125 g ai/ha): 0; Pigweed plant response rating ([12]; 125 g ai/ha): 0; Foxtail, Giant plant response rating ([13]; 125 g ai/ha): 0; Barnyardgrass plant response rating ([14]; 125 g ai/ha): 0; Ryegrass, Italian plant response rating ([15]; 125 g ai/ha): 0; Kochia plant response rating ([16]; 125 g ai/ha): 0
